# Patent US20230085307A1, “PYRIDAZINONE COMPOUND AND HERBICIDE” (NISSAN CHEMICAL CORPORATION, priority 2019, published 2023)
# Columns and labels:
# southern crabgrass = test: Test Example 5: herbicidal effect by foliage application, plastic box (Table 20, symbol F); format: in vivo, southern crabgrass (Digitaria ciliaris); conditions: foliage application; for herbicidal effect on F: southern crabgrass: evaluated three weeks after application
# Outline: (§1)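 Plants sown in sterilized diluvial soil and grown 14 days in a greenhouse at 25° C to 30° C, then sprayed on the foliage with the compound's emulsion diluted in water to a predetermined herbicide amount. Injury to weeds and crops scored three weeks after application on a visual rating scale.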
# windgrass = test: Test Example 5: herbicidal effect by foliage application, plastic box (Table 20, symbol L); format: in vivo, windgrass (Apera spica-venti); conditions: foliage application; for herbicidal effect on L: windgrass: evaluated three weeks after application
# Outline: as §1
# redroot pigweed = test: Test Example 5: herbicidal effect by foliage application, plastic box (Table 20, symbol N); format: in vivo, redroot pigweed (Amaranthus retroflexus); conditions: foliage application; for herbicidal effect on N: redroot pigweed: evaluated three weeks after application
# Outline: as §1
# Italian ryegrass = test: Test Example 5: herbicidal effect by foliage application, plastic box (Table 20, symbol K); format: in vivo, Italian ryegrass (Lolium multiflorum); conditions: foliage application; for herbicidal effect on K: Italian ryegrass: evaluated three weeks after application
# Outline: as §1
# persian speedwell = test: Test Example 5: herbicidal effect by foliage application, plastic box (Table 20, symbol R); format: in vivo, Persian speedwell (Veronica persica); conditions: foliage application; for herbicidal effect on R: persian speedwell: evaluated three weeks after application
# Outline: as §1
# velvetleaf = test: Test Example 5: herbicidal effect by foliage application, plastic box (Table 20, symbol M); format: in vivo, velvetleaf (Abutilon theophrasti); conditions: foliage application; for herbicidal effect on M: velvetleaf: evaluated three weeks after application
# Outline: as §1
# green foxtail = test: Test Example 5: herbicidal effect by foliage application, plastic box (Table 20, symbol G); format: in vivo, green foxtail (Setaria viridis); conditions: foliage application; for herbicidal effect on G: green foxtail: evaluated three weeks after application
# Outline: as §1
# lambsquarters = test: Test Example 5: herbicidal effect by foliage application, plastic box (Table 20, symbol O); format: in vivo, lambsquarters (Chenopodium album); conditions: foliage application; for herbicidal effect on O: lambsquarters: evaluated three weeks after application
# Outline: as §1
# barnyard grass [1] = test: Test Example 5: herbicidal effect by foliage application, plastic box (Table 20, symbol H); format: in vivo, barnyard grass (Echinochloa crus-galli); conditions: foliage application; for herbicidal effect on H: barnyard grass: evaluated three weeks after application
# Outline: as §1
# wild oat = test: Test Example 5: herbicidal effect by foliage application, plastic box (Table 20, symbol I); format: in vivo, wild oat (Avena fatua); conditions: foliage application; for herbicidal effect on I: wild oat: evaluated three weeks after application
# Outline: as §1
# blackgrass = test: Test Example 5: herbicidal effect by foliage application, plastic box (Table 20, symbol J); format: in vivo, blackgrass (Alopecurus myosuroides); conditions: foliage application; for herbicidal effect on J: blackgrass: evaluated three weeks after application
# Outline: as §1
# chickweed = test: Test Example 5: herbicidal effect by foliage application, plastic box (Table 20, symbol P); format: in vivo, common chickweed (Stellaria media); conditions: foliage application; for herbicidal effect on P: chickweed: evaluated three weeks after application
# Outline: as §1
# Chinese sprangletop = test: Test Example 3: herbicidal effect by foliage application, Wagner pot (Table 18, symbol D); format: in vivo, chinese sprangletop (Leptochloa chinensis)
# Outline: (§2)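 Plants were sown in alluvial soil held under 0.1–0.5 cm standing water and grown 14 days in a greenhouse at 25–30 °C. An emulsifiable formulation, water-diluted to the set dose, was then sprayed onto the foliage, and effects were scored three weeks later using previously defined criteria.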
# rice flat sedge = test: Test Example 3: herbicidal effect by foliage application, Wagner pot (Table 18, symbol E); format: in vivo, rice flat sedge (Cyperus iria)
# Outline: as §2
# barnyard grass [2] = test: Test Example 3: herbicidal effect by foliage application, Wagner pot (Table 18, symbol H); format: in vivo, barnyard grass (Echinochloa crus-galli)
# Outline: as §2
# [3] = 320 g/ha, three weeks after application
# [4] = AAH 320 g/ha, three weeks after application
# [5] = AAH 80 g/ha, three weeks after application
smiles,measurement,setting,value
COc1ccc(-c2sc3ccccc3c2-c2c(O)c(C)nn(C)c2=O)c(OC)n1 [1-079],"herbicidal effect grade, F: southern crabgrass",southern crabgrass; [3],0 (Herbicidal rate of 5% or less (almost no effect))
same,"herbicidal effect grade, L: windgrass",windgrass; [3],0 (Herbicidal rate of 5% or less (almost no effect))
same,"herbicidal effect grade, N: redroot pigweed",redroot pigweed; [3],0 (Herbicidal rate of 5% or less (almost no effect))
same,"herbicidal effect grade, K: Italian ryegrass",Italian ryegrass; [3],0 (Herbicidal rate of 5% or less (almost no effect))
same,"herbicidal effect grade, R: persian speedwell",persian speedwell; [3],0 (Herbicidal rate of 5% or less (almost no effect))
same,"herbicidal effect grade, M: velvetleaf",velvetleaf; [3],0 (Herbicidal rate of 5% or less (almost no effect))
same,"herbicidal effect grade, G: green foxtail",green foxtail; [3],0 (Herbicidal rate of 5% or less (almost no effect))
same,"herbicidal effect grade, O: lambsquarters",lambsquarters; [3],0 (Herbicidal rate of 5% or less (almost no effect))
same,"herbicidal effect grade, H: barnyard grass",barnyard grass [1]; [3],0 (Herbicidal rate of 5% or less (almost no effect))
same,"herbicidal effect grade, I: wild oat",wild oat; [3],0 (Herbicidal rate of 5% or less (almost no effect))
same,"herbicidal effect grade, J: blackgrass",blackgrass; [3],0 (Herbicidal rate of 5% or less (almost no effect))
same,"herbicidal effect grade, P: chickweed",chickweed; [3],1 (Herbicidal rate of 5% or more and less than 20%)
COc1cc(C(F)(F)F)ccc1-c1sc2ccccc2c1-c1c(O)c(C)nn(C)c1=O [1-155],"herbicidal effect on D (Chinese sprangletop), rating 0-5",Chinese sprangletop; 320 g/ha,0 (Herbicidal rate of 5% or less (almost no effect))
same,"herbicidal effect on E (rice flat sedge), rating 0-5",rice flat sedge; 320 g/ha,3 (Herbicidal rate of 40% or more and less than 70%)
same,"F: southern crabgrass, herbicidal effect",southern crabgrass; [4],0 (Herbicidal rate of 5% or less (almost no effect))
same,"L: windgrass, herbicidal effect",windgrass; [4],4 (Herbicidal rate of 70% or more and less than 90%)
same,"N: redroot pigweed, herbicidal effect",redroot pigweed; [4],2 (Herbicidal rate of 20% or more and less than 40%)
same,"herbicidal effect on H (barnyard grass), rating 0-5",barnyard grass [2]; 320 g/ha,3 (Herbicidal rate of 40% or more and less than 70%)
same,"K: Italian ryegrass, herbicidal effect",Italian ryegrass; [4],4 (Herbicidal rate of 70% or more and less than 90%)
same,"R: persian speedwell, herbicidal effect",persian speedwell; [4],4 (Herbicidal rate of 70% or more and less than 90%)
same,"M: velvetleaf, herbicidal effect",velvetleaf; [4],0 (Herbicidal rate of 5% or less (almost no effect))
same,"G: green foxtail, herbicidal effect",green foxtail; [4],3 (Herbicidal rate of 40% or more and less than 70%)
same,"O: lambsquarters, herbicidal effect",lambsquarters; [4],1 (Herbicidal rate of 5% or more and less than 20%)
same,"H: barnyard grass, herbicidal effect",barnyard grass [1]; [4],1 (Herbicidal rate of 5% or more and less than 20%)
same,"I: wild oat, herbicidal effect",wild oat; [4],1 (Herbicidal rate of 5% or more and less than 20%)
same,"J: blackgrass, herbicidal effect",blackgrass; [4],4 (Herbicidal rate of 70% or more and less than 90%)
same,"P: chickweed, herbicidal effect",chickweed; [4],5 (Herbicidal rate of 90% or more (almost completely withered))
CCCC(=O)Oc1c(OC)nn(C)c(=O)c1-c1c(-c2ccc(OC(F)(F)F)cc2)sc2ccccc12 [1-163],"herbicidal effect on D (Chinese sprangletop), rating 0-5",Chinese sprangletop; 80 g/ha,3 (Herbicidal rate of 40% or more and less than 70%)
same,"herbicidal effect on E (rice flat sedge), rating 0-5",rice flat sedge; 80 g/ha,0 (Herbicidal rate of 5% or less (almost no effect))
same,"F: southern crabgrass, herbicidal effect",southern crabgrass; [5],0 (Herbicidal rate of 5% or less (almost no effect))
same,"L: windgrass, herbicidal effect",windgrass; [5],0 (Herbicidal rate of 5% or less (almost no effect))
same,"N: redroot pigweed, herbicidal effect",redroot pigweed; [5],3 (Herbicidal rate of 40% or more and less than 70%)
same,"herbicidal effect on H (barnyard grass), rating 0-5",barnyard grass [2]; 80 g/ha,1 (Herbicidal rate of 5% or more and less than 20%)
same,"K: Italian ryegrass, herbicidal effect",Italian ryegrass; [5],0 (Herbicidal rate of 5% or less (almost no effect))
same,"R: persian speedwell, herbicidal effect",persian speedwell; [5],5 (Herbicidal rate of 90% or more (almost completely withered))
same,"M: velvetleaf, herbicidal effect",velvetleaf; [5],0 (Herbicidal rate of 5% or less (almost no effect))
same,"G: green foxtail, herbicidal effect",green foxtail; [5],0 (Herbicidal rate of 5% or less (almost no effect))
same,"O: lambsquarters, herbicidal effect",lambsquarters; [5],2 (Herbicidal rate of 20% or more and less than 40%)
same,"H: barnyard grass, herbicidal effect",barnyard grass [1]; [5],0 (Herbicidal rate of 5% or less (almost no effect))
same,"I: wild oat, herbicidal effect",wild oat; [5],0 (Herbicidal rate of 5% or less (almost no effect))
same,"J: blackgrass, herbicidal effect",blackgrass; [5],0 (Herbicidal rate of 5% or less (almost no effect))
same,"P: chickweed, herbicidal effect",chickweed; [5],4 (Herbicidal rate of 70% or more and less than 90%)
COC(=O)COc1ccc(-c2sc3ccc(F)cc3c2-c2c(O)c(C)nn(C)c2=O)cc1 [2-070],"herbicidal effect on D (Chinese sprangletop), rating 0-5",Chinese sprangletop; 320 g/ha,0 (Herbicidal rate of 5% or less (almost no effect))
same,"herbicidal effect on E (rice flat sedge), rating 0-5",rice flat sedge; 320 g/ha,0 (Herbicidal rate of 5% or less (almost no effect))
same,herbicidal effect on F: southern crabgrass,southern crabgrass; 320 g/ha,0 (Herbicidal rate of 5% or less (almost no effect))
same,herbicidal effect on L: windgrass,windgrass; 320 g/ha,0 (Herbicidal rate of 5% or less (almost no effect))
same,herbicidal effect on N: redroot pigweed,redroot pigweed; 320 g/ha,2 (Herbicidal rate of 20% or more and less than 40%)
same,"herbicidal effect on H (barnyard grass), rating 0-5",barnyard grass [2]; 320 g/ha,2 (Herbicidal rate of 20% or more and less than 40%)
same,herbicidal effect on K: Italian ryegrass,Italian ryegrass; 320 g/ha,0 (Herbicidal rate of 5% or less (almost no effect))
same,herbicidal effect on R: persian speedwell,persian speedwell; 320 g/ha,0 (Herbicidal rate of 5% or less (almost no effect))
same,herbicidal effect on M: velvetleaf,velvetleaf; 320 g/ha,0 (Herbicidal rate of 5% or less (almost no effect))
same,herbicidal effect on G: green foxtail,green foxtail; 320 g/ha,0 (Herbicidal rate of 5% or less (almost no effect))
same,herbicidal effect on O: lambsquarters,lambsquarters; 320 g/ha,0 (Herbicidal rate of 5% or less (almost no effect))
same,herbicidal effect on H: barnyard grass,barnyard grass [1]; 320 g/ha,0 (Herbicidal rate of 5% or less (almost no effect))
same,herbicidal effect on I: wild oat,wild oat; 320 g/ha,0 (Herbicidal rate of 5% or less (almost no effect))
same,herbicidal effect on J: blackgrass,blackgrass; 320 g/ha,0 (Herbicidal rate of 5% or less (almost no effect))
same,herbicidal effect on P: chickweed,chickweed; 320 g/ha,0 (Herbicidal rate of 5% or less (almost no effect))
Cc1nn(C)c(=O)c(-c2c(-c3ccc(Oc4ccccc4)cc3)sc3ccc(F)cc23)c1O [2-072],"herbicidal effect on D (Chinese sprangletop), rating 0-5",Chinese sprangletop; 320 g/ha,3 (Herbicidal rate of 40% or more and less than 70%)
same,"herbicidal effect on E (rice flat sedge), rating 0-5",rice flat sedge; 320 g/ha,5 (Herbicidal rate of 90% or more (almost completely withered))
same,herbicidal effect on F: southern crabgrass,southern crabgrass; 320 g/ha,0 (Herbicidal rate of 5% or less (almost no effect))
same,herbicidal effect on L: windgrass,windgrass; 320 g/ha,0 (Herbicidal rate of 5% or less (almost no effect))
same,herbicidal effect on N: redroot pigweed,redroot pigweed; 320 g/ha,3 (Herbicidal rate of 40% or more and less than 70%)
same,"herbicidal effect on H (barnyard grass), rating 0-5",barnyard grass [2]; 320 g/ha,2 (Herbicidal rate of 20% or more and less than 40%)
same,herbicidal effect on K: Italian ryegrass,Italian ryegrass; 320 g/ha,0 (Herbicidal rate of 5% or less (almost no effect))
same,herbicidal effect on R: persian speedwell,persian speedwell; 320 g/ha,5 (Herbicidal rate of 90% or more (almost completely withered))
same,herbicidal effect on M: velvetleaf,velvetleaf; 320 g/ha,2 (Herbicidal rate of 20% or more and less than 40%)
same,herbicidal effect on G: green foxtail,green foxtail; 320 g/ha,0 (Herbicidal rate of 5% or less (almost no effect))
same,herbicidal effect on O: lambsquarters,lambsquarters; 320 g/ha,1 (Herbicidal rate of 5% or more and less than 20%)
same,herbicidal effect on H: barnyard grass,barnyard grass [1]; 320 g/ha,0 (Herbicidal rate of 5% or less (almost no effect))
same,herbicidal effect on I: wild oat,wild oat; 320 g/ha,0 (Herbicidal rate of 5% or less (almost no effect))
same,herbicidal effect on J: blackgrass,blackgrass; 320 g/ha,0 (Herbicidal rate of 5% or less (almost no effect))
same,herbicidal effect on P: chickweed,chickweed; 320 g/ha,0 (Herbicidal rate of 5% or less (almost no effect))
